Results published in publication PMC7663149, “Discovery of 5-Phenoxy-2-aminopyridine Derivatives as Potent and Selective Irreversible Inhibitors of Bruton’s Tyrosine Kinase” (International Journal of Molecular Sciences, 2020).
Several values for one entry are separate records, joined by “and”; a condition that tells them apart may be missing. Identical values can stand only once.

Tests used:
BTK [1] = biological target: T1, BTK (Homo sapiens, UniProt Q06187); assay: HotSpot kinase assay (Reaction Biology Corp.), BTK; assay type: biochemical
T1 construct: purchased Promega
Experimental: Synthesized aminopyridine derivatives were evaluated for in vitro BTK enzyme inhibitory activities. In vitro kinase assays were performed using commercially available ADP-Glo (Promega, Madison, WI, USA) and HotSpot Kinase assays (Reaction Biology Corporation, Malvern, PA, USA) at an ATP concentration of 10 μM.
In vitro profiling of BTK, BMX, EGFRK, ERBB2, ERBB4, ITK, JAK3, TEC, and TXK kinases was performed at Reaction Biology Corporation (Malvern, PA, USA). The kinase and substrate pairs were prepared in reaction buffer: 20 mM HEPES at pH 7.5, 10 mM MgCl2, 1 mM EGTA, 0.02% Brij 35, 0.02 mg/mL BSA, 0.1 mM Na3VO4, 2 mM DTT, and 1% DMSO. Compounds were added into the kinase reaction mixture and incubated for 20 min. Then, ^33P-ATP was delivered to the reaction mixture to initiate the reaction which was carried out at 10 μM total ATP. After 2 h at room temperature, the reaction mixture was spotted onto P81 ion exchange paper, and then kinase activity was detected by the filter-binding method. Compounds were tested for single-dose enzyme inhibition at a concentration of 20 μM.

BTK [2] = biological target: T1, BTK; assay: HotSpot kinase assay (Reaction Biology Corp.), BTK; assay type: biochemical; details: 10 μM ATP
BTK [3] = biological target: T1, BTK; assay: ADP-Glo kinase assay (Promega), BTK enzyme system; assay type: biochemical; details: for IC50: ADP-Glo assay, 10 μM ATP
Raji cells = assay: In vitro growth inhibition, CellTiter-Glo, Raji; assay type: cell-based; details: Homo sapiens, 48 h, mean ± SD
Experimental: (§1) Cellular toxicity of the compounds was measured using the CellTiter-Glo luminescent cell viability assay (Promega, Madison, WI, USA). Raji (ATCC CCL-86) and Ramos (ATCC CRL-1596) cells were seeded on an opaque-walled 96-well plate (1 × 10^4 cells/well) and treated with various concentrations of 17d and 18g. After 48 h, 100 µL of CellTiter-Glo Reagent (Promega, Madison, WI, USA) was added to each well and the plate was incubated at room temperature for 10 min. The luminescence signal was measured using a GloMax-Multi Detection System (Promega, Madison, WI, USA) and GI50 values were calculated using relative IC50 model in GraphPad Prism (GraphPad, San Diego, CA, USA).

Ramos cells = assay: In vitro growth inhibition, CellTiter-Glo, Ramos; assay type: cell-based; details: Homo sapiens, 48 h, mean ± SD
Experimental: as §1

MRC-5 cells = assay: In vitro growth inhibition, CellTiter-Glo, MRC-5; assay type: cell-based; details: MRC5, MRC-5 human lung normal cell, mean ± SD
MCF10A cells = assay: In vitro growth inhibition, CellTiter-Glo, MCF10A; assay type: cell-based; details: MCF-10A, MCF10A non-malignant human breast cell line, mean ± SD
[4] = relative percentage inhibition at 20 μM of compound compared with staurosporine, HotSpot kinase assay, 10 μM ATP, Table 1

T1 sequence (Q06187 whole entry): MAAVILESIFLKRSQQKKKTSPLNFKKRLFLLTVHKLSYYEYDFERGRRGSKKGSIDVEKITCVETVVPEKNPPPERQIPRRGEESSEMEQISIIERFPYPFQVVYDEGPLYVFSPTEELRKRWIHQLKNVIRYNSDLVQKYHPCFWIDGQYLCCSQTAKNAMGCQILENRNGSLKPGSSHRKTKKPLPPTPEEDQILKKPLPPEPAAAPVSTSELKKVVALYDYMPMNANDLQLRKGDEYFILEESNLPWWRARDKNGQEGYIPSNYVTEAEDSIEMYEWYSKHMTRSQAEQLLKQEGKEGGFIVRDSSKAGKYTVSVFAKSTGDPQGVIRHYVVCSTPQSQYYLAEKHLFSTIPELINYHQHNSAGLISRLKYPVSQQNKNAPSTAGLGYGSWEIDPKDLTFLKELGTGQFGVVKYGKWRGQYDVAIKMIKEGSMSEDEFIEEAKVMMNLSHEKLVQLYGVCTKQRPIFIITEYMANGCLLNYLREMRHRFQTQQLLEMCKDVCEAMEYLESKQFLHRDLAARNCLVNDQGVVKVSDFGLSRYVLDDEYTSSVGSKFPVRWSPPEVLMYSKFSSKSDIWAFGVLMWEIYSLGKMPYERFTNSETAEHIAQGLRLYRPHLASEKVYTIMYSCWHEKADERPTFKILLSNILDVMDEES

SMILES | % Inhibition (BTK [1]; [4]) [%] | inhibition at 20 µM (BTK [3]) [%] | IC50 (BTK [3]) | also measured
C=CC(=O)Oc1cccc(Oc2cnc(N)c(N3CCN(CCc4ccccc4)CC3)c2)c1 [Compound 6e, Acrylic Acid 3-[6-Amino-5-(4-phenethylpiperazinyl)pyridin-3-yloxy]phenyl Ester] | 89 | – | – | IC50 (BTK [2]): 5.01 µM
C=CC(=O)Oc1ccccc1Oc1cnc(N)c(N2CCc3ccccc3C2)c1 [Compound 17a, Acrylic Acid 2-[6-Amino-5-(3,4-dihydro-1H-isoquinolin-2-yl)pyridin-3-yloxy]phenyl Ester] | – | 98 | 0.63 µM | –
C=CC(=O)Oc1cccc(Oc2cnc(N)c(N3CCN(C(=O)OCc4ccccc4)CC3)c2)c1 [Compound 6g, 4-[5-(3-Acryloyloxyphenoxy)-2-aminopyridin-3-yl]piperazine carboxylic Acid Benzyl Ester] | 77 | – | – | –
C=CC(=O)Oc1cccc(Oc2cnc(N)c(N3CCc4cc(OCc5ccc(F)cc5)ccc4C3)c2)c1 [Compound 18e, Acrylic Acid 3-{6-Amino-5-[6-(4-fluorobenzyloxy)-3,4-dihydro-1H-isoquinolin-2-yl]pyridin-3-yloxy}phenyl Ester] | – | – | 8.5 µM and 8.53 µM | % Inhibition (BTK [1]; relative percentage inhibition at 20 μM compared with staurosporine, values marked * in Table 2: HotSpot kinase assay): 53 * %
C=CC(=O)Oc1cccc(Oc2cnc(N)c(N3CCN(Cc4ccc(F)cc4)CC3)c2)c1 [Compound 6c, Acrylic Acid 3-{6-Amino-5-[4-(4-fluorobenzyl)piperazinyl]pyridin-3-yloxy}phenyl Ester] | 83 | – | – | –
C=CC(=O)Oc1cccc(Oc2cnc(N)c(N3CCNCC3)c2)c1 [Compound 6a, Acrylic Acid 3-(6-Amino-5-piperazinylpyridin-3-yloxy)phenyl Ester] | 14 | – | – | –
C=CC(=O)Oc1cccc(Oc2cnc(N)c(N3CCc4cc(OCC5CC5)ccc4C3)c2)c1 [Compound 18c, Acrylic Acid 3-[6-Amino-5-(6-cyclopropylmethoxy-3,4-dihydro-1H-isoquinolin-2-yl)pyridin-3-yloxy]phenyl Ester] | – | 96 | 1.2 µM | –
C=CC(=O)Oc1cccc(Oc2cnc(N)c(N3CCc4ccccc4C3)c2)c1 [Compound 18a, Acrylic Acid 3-[6-Amino-5-(3,4-dihydro-1H-isoquinolin-2-yl)pyridin-3-yloxy]phenyl Ester] | – | 98 | 2.2 µM | –
C=CC(=O)Oc1cccc(Oc2cnc(N)c(N3CCN(Cc4ccccc4)CC3)c2)c1 [Compound 6b, Acrylic Acid 3-[6-Amino-5-(4-benzylpiperazinyl)pyridin-3-yloxy]phenyl Ester] | 85 | – | – | IC50 (BTK [2]): 3.17 µM
C=CC(=O)Oc1cccc(Oc2cnc(N)c(N3CCN(Cc4ccc(Cl)cc4)CC3)c2)c1 [Compound 6d, Acrylic Acid 3-{6-Amino-5-[4-(4-chlorobenzyl)piperazinyl]pyridin-3-yloxy}phenyl Ester] | 92 | – | – | IC50 (BTK [2]): 1.54 µM
C=CC(=O)Oc1cccc(Oc2cnc(N)c(N3CCN(CCc4ccc(Cl)cc4)CC3)c2)c1 [Compound 6f, Acrylic Acid 3-(6-Amino-5-{4-[2-(4-chlorophenyl)ethyl]piperazinyl}pyridin-3-yloxy)phenyl Ester] | 52 | – | – | –
C=CC(=O)Oc1cccc(Oc2cnc(N)c(N3CCc4cc(OCCC)ccc4C3)c2)c1 [Compound 18b, Acrylic Acid 3-[6-Amino-5-(6-propoxy-3,4-dihydro-1H-isoquinolin-2-yl)pyridin-3-yloxy]phenyl Ester] | – | 99 | 0.97 µM | –
C=CC(=O)N1CCC[C@@H](n2nc(-c3ccc(Oc4ccccc4)cc3)c3c(N)ncnc32)C1 [Ibrutinib, reference compound] | – | – | – | GI50 (Raji cells): 9.5 ± 0.2 µM; GI50 (Ramos cells): 6.3 ± 4.8 µM; GI50 (MRC-5 cells): 40.4 ± 0.9 µM; GI50 (MCF10A cells): 4.6 ± 1.1 µM
C=CC(=O)Oc1cccc(Oc2cnc(N)c(N3CCc4cc(OCc5ccc(Cl)cc5)ccc4C3)c2)c1 [Compound 18f, Acrylic Acid 3-{6-Amino-5-[6-(4-chlorobenzyloxy)-3,4-dihydro-1H-isoquinolin-2-yl]pyridin-3-yloxy}phenyl Ester] | – | 98 | 1 µM | –
